# Laboratory results taken from PMC6211257, “Synthesis and cytotoxic activities of novel copper and silver complexes of 1,3-diaryltriazene-substituted sulfonamides” (Journal of Enzyme Inhibition and Medicinal Chemistry, 2018).
# Values joined by “and” are separate entries in the source; they are usually repeats but may differ in a detail not shown here. Equal entries are not always repeated.
# Tested on: human colorectal adenocarcinoma (DLD-1) cells
# Experiment: MTT cytotoxicity assay, DLD-1
# Format: cell-based
# Conditions: cancer cell, 48 h, means of three independent experiments
# Description: (§1) The cells studied were obtained from the American Type Culture Collection (ATCC, Manassas, VA), and included human colorectal adenocarcinoma (DLD-1), cervix carcinoma (HeLa), breast adenocarcinoma (MDA-MB-231), colon adenocarcinoma (HT-29), endometrial adenocarcinoma (ECC-1), prostate cancer (DU-145 and PC-3), normal embryonic kidney (HEK-293), normal prostate epithelium (PNT-1A), and normal retinal pigment epithelium (ARPE-19) cells. As recommended by ATCC, cells were subjected to propagation using DMEM-F12 and RPMI-1640 media, with supplements 10% fetal bovine serum, L-glutamine (2 mM), penicillin (100 U/mL) and streptomycin ([…]) in a humidified atmosphere (5% CO2) at 37 °C. When the cultures reached 70–80% confluence, the cells were harvested using 0.25% trypsin (Sigma).
# (§2) Cytotoxic activities were based on the reduction of (3–(4,5-dimethylthiazol-2-yl)-2,5-diphenyltetrazolium bromide) (MTT) by mitochondrial dehydrogenase of viable cells to give a blue formazan product which can be measured spectrophotometrically by UV–Vis measurements. MTT colorimetric assays were performed using 96 well plates. The cells were seeded in a 96 well plate at concentration 5.0 × 10^4 cells/well and incubated at 37 °C for 24 h. After treatment with various concentrations of the test compound (1, 5, 10, 25, 50, 100 and 200 μM), the cells were incubated for an additional 48 h at 37 °C. After incubation, the medium was removed, and the cells in each well were incubated with 100 μL MTT solution (5 mg/mL) for 4 h at 37 °C. MTT solutions were then discarded, and 100 μL DMSO were added to dissolve insoluble formazan crystals. Optical densities were measured at 570 nm (Varioskan Flash Multimode Reader, Thermo, Waltham, MA). Data were obtained from triplicate wells. Cytotoxic effects were determined in reference to negative controls (vehicle treated cells). Cytotoxicity was expressed as the mean percentage increase relative to the unexposed control (mean ± SD). All statistical analyses were performed using SPSS package program for Windows (Version 20, Chicago, IL). Control values were set to 0% cytotoxicity. Cytotoxicity data, where appropriate, were fitted to sigmoidal curves and a four-parameter logistic model was used to calculate the IC50 values, the concentration of material causing 50% inhibition, compared to the untreated controls. 5-Fluorouracil (5-FU) was also used as a control agent[21]^,[22].
row,Compound,IC50
1,COc1ccc(N=N[N]([Ag][O]C(C)=O)c2cccc(S(N)(=O)=O)c2)cc1 [Compound L2-Ag],31.6 µM
2,COc1ccc([N+]2=N[N](c3cccc(S(N)(=O)=O)c3)[Cu-]2([O]C(C)=O)[O]C(C)=O)cc1 [Compound L2-Cu],42.7 ± 3.3 µM
3,CC(=O)[O][Ag][N](N=Nc1ccc(C(=O)O)cc1)c1cccc(S(N)(=O)=O)c1 [Compound L3-Ag],3.3 ± 0.3 µM
4,CC(=O)[O][Cu-]1([O]C(C)=O)[N](c2cccc(S(N)(=O)=O)c2)N=[N+]1c1ccc(C(=O)O)cc1 [Compound L3-Cu],65.2 ± 2.5 µM

# Tested on: cervix carcinoma (HeLa) cells
# Experiment: MTT cytotoxicity assay, HeLa
# Format: cell-based, human
# Conditions: HeLa cells, ratio of IC50 values
# Description: as §1, §2
row,Compound,fold increased potency than the reference drug 5-FU
1,COc1ccc(N=N[N]([Ag][O]C(C)=O)c2cccc(S(N)(=O)=O)c2)cc1 [Compound L2-Ag],6.84 fold

# Same assay, conditions: cancer cell, MTT, 48 h, means of three independent experiments
row,Compound,IC50
1,COc1ccc(N=N[N]([Ag][O]C(C)=O)c2cccc(S(N)(=O)=O)c2)cc1 [Compound L2-Ag],2.8 ± 0.1 µM
2,COc1ccc([N+]2=N[N](c3cccc(S(N)(=O)=O)c3)[Cu-]2([O]C(C)=O)[O]C(C)=O)cc1 [Compound L2-Cu],2.08 µM and 2.1 µM
3,CC(=O)[O][Ag][N](N=Nc1ccc(C(=O)O)cc1)c1cccc(S(N)(=O)=O)c1 [Compound L3-Ag],3.4 ± 0.2 µM
4,CC(=O)[O][Cu-]1([O]C(C)=O)[N](c2cccc(S(N)(=O)=O)c2)N=[N+]1c1ccc(C(=O)O)cc1 [Compound L3-Cu],63.9 ± 4.3 µM

# Tested on: breast adenocarcinoma (MDA-MB-231) cells
# Experiment: MTT cytotoxicity assay, MDA-MB-231
# Format: cell-based, human
# Conditions: cancer cell, 48 h, means of three independent experiments
# Description: as §1, §2
row,Compound,IC50
1,COc1ccc(N=N[N]([Ag][O]C(C)=O)c2cccc(S(N)(=O)=O)c2)cc1 [Compound L2-Ag],30.3 ± 3 µM
2,COc1ccc([N+]2=N[N](c3cccc(S(N)(=O)=O)c3)[Cu-]2([O]C(C)=O)[O]C(C)=O)cc1 [Compound L2-Cu],50 ± 2.4 µM
3,CC(=O)[O][Ag][N](N=Nc1ccc(C(=O)O)cc1)c1cccc(S(N)(=O)=O)c1 [Compound L3-Ag],9.8 ± 0.9 µM
4,CC(=O)[O][Cu-]1([O]C(C)=O)[N](c2cccc(S(N)(=O)=O)c2)N=[N+]1c1ccc(C(=O)O)cc1 [Compound L3-Cu],48.3 ± 2.5 µM

# Tested on: colon adenocarcinoma (HT-29) cells
# Experiment: MTT cytotoxicity assay, HT-29
# Format: cell-based, human
# Conditions: cancer cell, 48 h, means of three independent experiments
# Description: as §1, §2
row,Compound,IC50
1,COc1ccc(N=N[N]([Ag][O]C(C)=O)c2cccc(S(N)(=O)=O)c2)cc1 [Compound L2-Ag],24.9 ± 2.5 µM
2,COc1ccc([N+]2=N[N](c3cccc(S(N)(=O)=O)c3)[Cu-]2([O]C(C)=O)[O]C(C)=O)cc1 [Compound L2-Cu],94.9 ± 9.4 µM
3,CC(=O)[O][Ag][N](N=Nc1ccc(C(=O)O)cc1)c1cccc(S(N)(=O)=O)c1 [Compound L3-Ag],10.1 ± 3.1 µM
4,CC(=O)[O][Cu-]1([O]C(C)=O)[N](c2cccc(S(N)(=O)=O)c2)N=[N+]1c1ccc(C(=O)O)cc1 [Compound L3-Cu],205 ± 20.3 µM

# Tested on: endometrial adenocarcinoma (ECC-1) cells
# Experiment: MTT cytotoxicity assay, ECC-1
# Format: cell-based, human
# Conditions: cancer cell, 48 h, means of three independent experiments
# Description: as §1, §2
row,Compound,IC50
1,COc1ccc(N=N[N]([Ag][O]C(C)=O)c2cccc(S(N)(=O)=O)c2)cc1 [Compound L2-Ag],29.1 µM
2,COc1ccc([N+]2=N[N](c3cccc(S(N)(=O)=O)c3)[Cu-]2([O]C(C)=O)[O]C(C)=O)cc1 [Compound L2-Cu],39.5 ± 2.5 µM
3,CC(=O)[O][Ag][N](N=Nc1ccc(C(=O)O)cc1)c1cccc(S(N)(=O)=O)c1 [Compound L3-Ag],16.2 ± 1.6 µM
4,CC(=O)[O][Cu-]1([O]C(C)=O)[N](c2cccc(S(N)(=O)=O)c2)N=[N+]1c1ccc(C(=O)O)cc1 [Compound L3-Cu],362 ± 38.1 µM

# Tested on: prostate cancer (DU-145) cells
# Experiment: MTT cytotoxicity assay, DU-145
# Format: cell-based, human
# Conditions: cancer cell, MTT, 48 h, means of three independent experiments; read-out: IC50 DU-145
# Description: as §1, §2
row,Compound,IC50
1,COc1ccc(N=N[N]([Ag][O]C(C)=O)c2cccc(S(N)(=O)=O)c2)cc1 [Compound L2-Ag],18.6 µM
2,COc1ccc([N+]2=N[N](c3cccc(S(N)(=O)=O)c3)[Cu-]2([O]C(C)=O)[O]C(C)=O)cc1 [Compound L2-Cu],116 ± 14.6 µM
3,CC(=O)[O][Ag][N](N=Nc1ccc(C(=O)O)cc1)c1cccc(S(N)(=O)=O)c1 [Compound L3-Ag],4.8 ± 0.4 µM
4,CC(=O)[O][Cu-]1([O]C(C)=O)[N](c2cccc(S(N)(=O)=O)c2)N=[N+]1c1ccc(C(=O)O)cc1 [Compound L3-Cu],58.3 ± 6.4 µM

# Tested on: prostate cancer (PC-3) cells
# Experiment: MTT cytotoxicity assay, PC-3
# Format: cell-based, human
# Conditions: cancer cell, 48 h, means of three independent experiments
# Description: as §1, §2
row,Compound,IC50
1,COc1ccc(N=N[N]([Ag][O]C(C)=O)c2cccc(S(N)(=O)=O)c2)cc1 [Compound L2-Ag],28.2 µM
2,COc1ccc([N+]2=N[N](c3cccc(S(N)(=O)=O)c3)[Cu-]2([O]C(C)=O)[O]C(C)=O)cc1 [Compound L2-Cu],65.3 ± 8.5 µM
3,CC(=O)[O][Ag][N](N=Nc1ccc(C(=O)O)cc1)c1cccc(S(N)(=O)=O)c1 [Compound L3-Ag],5.1 ± 0.5 µM
4,CC(=O)[O][Cu-]1([O]C(C)=O)[N](c2cccc(S(N)(=O)=O)c2)N=[N+]1c1ccc(C(=O)O)cc1 [Compound L3-Cu],196 ± 22.6 µM

# Tested on: normal embryonic kidney (HEK-293) cells
# Experiment: MTT cytotoxicity assay, HEK-293
# Format: cell-based, human
# Conditions: normal cell, 48 h, means of three independent experiments
# Description: as §1, §2
row,Compound,IC50
1,COc1ccc(N=N[N]([Ag][O]C(C)=O)c2cccc(S(N)(=O)=O)c2)cc1 [Compound L2-Ag],17.8 ± 1.7 µM
2,COc1ccc([N+]2=N[N](c3cccc(S(N)(=O)=O)c3)[Cu-]2([O]C(C)=O)[O]C(C)=O)cc1 [Compound L2-Cu],159 ± 19.4 µM
3,CC(=O)[O][Ag][N](N=Nc1ccc(C(=O)O)cc1)c1cccc(S(N)(=O)=O)c1 [Compound L3-Ag],9.9 ± 0.9 µM
4,CC(=O)[O][Cu-]1([O]C(C)=O)[N](c2cccc(S(N)(=O)=O)c2)N=[N+]1c1ccc(C(=O)O)cc1 [Compound L3-Cu],135 ± 15.6 µM

# Tested on: normal prostate epithelium (PNT-1A) cells
# Experiment: MTT cytotoxicity assay, PNT-1A
# Format: cell-based, human
# Conditions: normal cell, 48 h, means of three independent experiments, read-out: IC50 PNT-1A
# Description: as §1, §2
row,Compound,IC50
1,COc1ccc(N=N[N]([Ag][O]C(C)=O)c2cccc(S(N)(=O)=O)c2)cc1 [Compound L2-Ag],17.5 ± 17.5 µM
2,COc1ccc([N+]2=N[N](c3cccc(S(N)(=O)=O)c3)[Cu-]2([O]C(C)=O)[O]C(C)=O)cc1 [Compound L2-Cu],95.1 ± 11.1 µM
3,CC(=O)[O][Ag][N](N=Nc1ccc(C(=O)O)cc1)c1cccc(S(N)(=O)=O)c1 [Compound L3-Ag],9.2 ± 0.9 µM
4,CC(=O)[O][Cu-]1([O]C(C)=O)[N](c2cccc(S(N)(=O)=O)c2)N=[N+]1c1ccc(C(=O)O)cc1 [Compound L3-Cu],120 ± 13.5 µM

# Tested on: normal retinal pigment epithelium (ARPE-19) cells
# Experiment: MTT cytotoxicity assay, ARPE-19
# Format: cell-based, human
# Conditions: normal cell, 48 h, means of three independent experiments
# Description: as §1, §2
row,Compound,IC50
1,COc1ccc(N=N[N]([Ag][O]C(C)=O)c2cccc(S(N)(=O)=O)c2)cc1 [Compound L2-Ag],22 ± 10.2 µM
2,COc1ccc([N+]2=N[N](c3cccc(S(N)(=O)=O)c3)[Cu-]2([O]C(C)=O)[O]C(C)=O)cc1 [Compound L2-Cu],132 ± 15.6 µM
3,CC(=O)[O][Ag][N](N=Nc1ccc(C(=O)O)cc1)c1cccc(S(N)(=O)=O)c1 [Compound L3-Ag],9.5 ± 0.9 µM
4,CC(=O)[O][Cu-]1([O]C(C)=O)[N](c2cccc(S(N)(=O)=O)c2)N=[N+]1c1ccc(C(=O)O)cc1 [Compound L3-Cu],> 300 µM
